Test results: patent publication US6054435A, “6-O-substituted macrolides having antibacterial activity” (priority 1999, dated 2000)
≈ marks a conversion by molar mass, not a printed value.

Tests used:
Assay in all cases: in vitro antibacterial activity (MIC), agar dilution
Assay type in all cases: cell-based
[1] = test system: Streptococcus Pneumonia 5979; conditions: organism code ZZ; BHI agar, 35-37° C., 20 to 24 hours; unit assumed
Protocol: (§1) Representative compounds of the present invention were assayed in vitro for antibacterial activity as follows: Twelve petri dishes containing successive aqueous dilutions of the test compound mixed with 10 mL of sterilized Brain Heart Infusion (BHI) agar (Difco 0418-01-5) were prepared. Each plate was inoculated with 1:100 (or 1:10 for slow-growing strains, such as Micrococcus and Streptococcus) dilutions of up to 32 different microorganisms, using a Steers replicator block. […] In addition, a control plate, using BHI agar containing no test compound, was prepared and incubated at the beginning and end of each test.
(§2) An additional plate containing a compound having known susceptibility patterns for the organisms being tested and belonging to the same antibiotic class as the test compound was also prepared and incubated as a further control, as well as to provide test-to-test comparability.
(§3) After incubation, each plate was visually inspected. The minimum inhibitory concentration (MIC) was defined as the lowest concentration of drug yielding no growth, a slight haze, or sparsely isolated colonies on the inoculum spot as compared to the growth control.

[2] = test system: Streptococcus Pneumonia 5649; conditions: organism code ZZA; BHI agar, 35-37° C., 20 to 24 hours; unit assumed
Protocol: as §1, §2, §3

[3] = test system: Staphylococcus aureus CMX 553; conditions: organism code FF; BHI agar, 35-37° C., 20 to 24 hours; unit assumed
Protocol: as §1, §2, §3

[4] = test system: Staphylococcus aureus NCTC10649M; conditions: organism code EE; BHI agar, 35-37° C., 20 to 24 hours; unit assumed
Protocol: as §1, §2, §3

[5] = test system: Micrococcus luteus ATCC 9341; conditions: organism code OO; BHI agar, 35-37° C., 20 to 24 hours; unit assumed
Protocol: as §1, §2, §3

[6] = test system: Micrococcus luteus ATCC 4698; conditions: organism code PP; BHI agar, 35-37° C., 20 to 24 hours; unit assumed
Protocol: as §1, §2, §3

[7] = test system: Staphylococcus epidermidis 3519; conditions: organism code HH; BHI agar, 35-37° C., 20 to 24 hours; unit assumed
Protocol: as §1, §2, §3

[8] = test system: Staphylococcus aureus 1775; conditions: organism code GG; BHI agar, 35-37° C., 20 to 24 hours; unit assumed
Protocol: as §1, §2, §3

[9] = test system: Mycobacterium smegmatis ATCC 114; conditions: organism code UU; BHI agar, 35-37° C., 20 to 24 hours; unit assumed
Protocol: as §1, §2, §3

Escherichia coli JUHL = conditions: organism code QQ; BHI agar, 35-37° C., 20 to 24 hours; unit assumed
Protocol: as §1, §2, §3

[10] = test system: Nocardia Asteroides ATCC9970; conditions: organism code VV; BHI agar, 35-37° C., 20 to 24 hours; unit assumed
Protocol: as §1, §2, §3

[11] = test system: Streptococcus bovis A-5169; conditions: organism code JJ; BHI agar, 35-37° C., 20 to 24 hours; unit assumed
Protocol: as §1, §2, §3

[12] = test system: Streptococcus Pneumonia ATCC6303; conditions: organism code XX; BHI agar, 35-37° C., 20 to 24 hours; unit assumed
Protocol: as §1, §2, §3

[13] = test system: Enterococcus faecium ATCC 8043; conditions: organism code II; BHI agar, 35-37° C., 20 to 24 hours; unit assumed
Protocol: as §1, §2, §3

[14] = test system: Staphylococcus aureus A-5278; conditions: organism code CC; BHI agar, 35-37° C., 20 to 24 hours; unit assumed
Protocol: as §1, §2, §3

[15] = test system: Streptococcus pyogenes 930; conditions: organism code MM; BHI agar, 35-37° C., 20 to 24 hours; unit assumed
Protocol: as §1, §2, §3

[16] = test system: Streptococcus pyogenes PIU 2548; conditions: organism code NN; BHI agar, 35-37° C., 20 to 24 hours; unit assumed
Protocol: as §1, §2, §3

[17] = test system: Streptococcus agalactiae CMX 508; conditions: organism code KK; BHI agar, 35-37° C., 20 to 24 hours; unit assumed
Protocol: as §1, §2, §3

[18] = test system: Streptococcus Pneumonia GYR 1171; conditions: organism code YY; BHI agar, 35-37° C., 20 to 24 hours; unit assumed
Protocol: as §1, §2, §3

Candida albicans CCH 442 = conditions: organism code TT; BHI agar, 35-37° C., 20 to 24 hours; unit assumed
Protocol: as §1, §2, §3

[19] = test system: Staphylococcus aureus A5177; conditions: organism code BB; BHI agar, 35-37° C., 20 to 24 hours; unit assumed
Protocol: as §1, §2, §3

Escherichia coli SS = conditions: organism code RR; BHI agar, 35-37° C., 20 to 24 hours; unit assumed
Protocol: as §1, §2, §3

Escherichia coli DC-2 = conditions: organism code SS; BHI agar, 35-37° C., 20 to 24 hours; unit assumed
Protocol: as §1, §2, §3

[20] = test system: Staphylococcus aureus CMX 642A; conditions: organism code DD; BHI agar, 35-37° C., 20 to 24 hours; unit assumed
Protocol: as §1, §2, §3

[21] = test system: Staphylococcus aureus ATCC 6538P; conditions: organism code AA; BHI agar, 35-37° C., 20 to 24 hours; unit assumed
Protocol: as §1, §2, §3

[22] = test system: Streptococcus pyogenes EES61; conditions: organism code LL; BHI agar, 35-37° C., 20 to 24 hours; unit assumed
Protocol: as §1, §2, §3

[23] = test system: Haemophilis Influenzae DILL AMP R; conditions: organism code WW; BHI agar, 35-37° C., 20 to 24 hours; unit assumed
Protocol: as §1, §2, §3

Row | Structure (SMILES) | MIC [1] [µg/mL] | MIC [3] [µg/mL] | MIC [4] [µg/mL] | MIC [5] [µg/mL] | MIC [6] [µg/mL] | MIC [7] [µg/mL] | MIC [8] [µg/mL] | MIC [9] [µg/mL] | MIC (Escherichia coli JUHL) [µg/mL] | MIC [10] [µg/mL] | MIC [11] [µg/mL] | MIC [12] [µg/mL] | MIC [14] [µg/mL] | MIC [15] [µg/mL] | MIC [16] [µg/mL] | MIC [17] [µg/mL] | MIC [18] [µg/mL] | MIC (Candida albicans CCH 442) [µg/mL] | MIC [19] [µg/mL] | MIC (Escherichia coli SS) [µg/mL] | also measured
1 | CC[C@H]1OC(=O)[C@H](C)C(=O)[C@H](C)[C@@H](O[C@@H]2O[C@H](C)C[C@H](N(C)C)[C@H]2O)[C@](C)(OC/C=C/c2cncc(-c3ccsc3)c2)C[C@@H](C)C(=O)[C@H](C)[C@H]2NC(=O)O[C@@]21C [Example 49] | 32 (≈ 40.1 µM) | 0.05 (≈ 0.0627 µM) | 0.1 (≈ 0.125 µM) | 0.02 (≈ 0.0251 µM) | 0.05 (≈ 0.0627 µM) | 0.1 (≈ 0.125 µM) | > 100 | 0.39 (≈ 0.489 µM) | 50 (≈ 62.7 µM) | 0.05 (≈ 0.0627 µM) | 0.02 (≈ 0.0251 µM) | ≤ 0.004 | > 100 | 25 (≈ 31.3 µM) | 0.2 (≈ 0.251 µM) | 0.02 (≈ 0.0251 µM) | ≤ 0.004 | > 100 | 0.05 (≈ 0.0627 µM) | 0.39 (≈ 0.489 µM) | MIC [2]: 0.03 µg/mL (≈ 0.0376 µM); MIC [13]: 0.05 µg/mL (≈ 0.0627 µM); MIC (Escherichia coli DC-2): 50 µg/mL (≈ 62.7 µM); MIC [20]: 0.1 µg/mL (≈ 0.125 µM); MIC [21]: 0.1 µg/mL (≈ 0.125 µM); MIC [22]: 0.02 µg/mL (≈ 0.0251 µM)
2 | CC[C@H]1OC(=O)[C@H](C)C(=O)[C@H](C)[C@@H](O[C@@H]2O[C@H](C)C[C@H](N(C)C)[C@H]2O)[C@](C)(OC/C=C/c2cncc(-c3cccnc3)c2)C[C@@H](C)C(=O)[C@H](C)[C@H]2NC(=O)O[C@@]21C [Example 47] | > 128 | 0.05 (≈ 0.0631 µM) | 0.1 (≈ 0.126 µM) | 0.01 (≈ 0.0126 µM) | 0.2 (≈ 0.252 µM) | 0.1 (≈ 0.126 µM) | > 100 | 0.78 (≈ 0.984 µM) | 50 (≈ 63.1 µM) | 0.05 (≈ 0.0631 µM) | 0.01 (≈ 0.0126 µM) | 0.008 (≈ 0.0101 µM) | > 100 | 50 (≈ 63.1 µM) | 0.2 (≈ 0.252 µM) | 0.01 (≈ 0.0126 µM) | 0.008 (≈ 0.0101 µM) | > 100 | 0.05 (≈ 0.0631 µM) | 0.39 (≈ 0.492 µM) | MIC [2]: 0.5 µg/mL (≈ 0.631 µM); MIC [13]: 0.05 µg/mL (≈ 0.0631 µM); MIC (Escherichia coli DC-2): 25 µg/mL (≈ 31.5 µM); MIC [20]: 0.05 µg/mL (≈ 0.0631 µM); MIC [21]: 0.05 µg/mL (≈ 0.0631 µM); MIC [22]: 0.02 µg/mL (≈ 0.0252 µM)
3 | CC[C@H]1OC(=O)[C@H](C)C(=O)[C@H](C)[C@@H](O[C@@H]2O[C@H](C)C[C@H](N(C)C)[C@H]2O)[C@](C)(OCC#Cc2ccc(-c3cccc(F)c3)s2)C[C@@H](C)C(=O)[C@H](C)[C@H]2NC(=O)O[C@@]21C [Example 15] | 0.25 (≈ 0.308 µM) | 0.1 (≈ 0.123 µM) | 0.2 (≈ 0.246 µM) | 0.05 (≈ 0.0615 µM) | 0.1 (≈ 0.123 µM) | 0.2 (≈ 0.246 µM) | 50 (≈ 61.5 µM) | 0.39 (≈ 0.48 µM) | > 100 | 0.2 (≈ 0.246 µM) | 0.05 (≈ 0.0615 µM) | 0.015 (≈ 0.0185 µM) | 50 (≈ 61.5 µM) | 3.1 (≈ 3.81 µM) | 0.2 (≈ 0.246 µM) | 0.05 (≈ 0.0615 µM) | 0.015 (≈ 0.0185 µM) | > 100 | 0.1 (≈ 0.123 µM) | 0.39 (≈ 0.48 µM) | MIC [2]: 0.25 µg/mL (≈ 0.308 µM); MIC (Escherichia coli DC-2): > 100 µg/mL; MIC [20]: 0.2 µg/mL (≈ 0.246 µM); MIC [21]: 0.1 µg/mL (≈ 0.123 µM); MIC [22]: 0.05 µg/mL (≈ 0.0615 µM); MIC [23]: 2 µg/mL (≈ 2.46 µM)
4 | CC[C@H]1OC(=O)[C@H](C)C(=O)[C@H](C)[C@@H](O[C@@H]2O[C@H](C)C[C@H](N(C)C)[C@H]2O)[C@](C)(OCC#Cc2ccc(-c3cccc(OC)c3)s2)C[C@@H](C)C(=O)[C@H](C)[C@H]2NC(=O)O[C@@]21C [Example 14] | 1 (≈ 1.21 µM) | 0.1 (≈ 0.121 µM) | 0.1 (≈ 0.121 µM) | 0.01 (≈ 0.0121 µM) | 0.02 (≈ 0.0242 µM) | 0.1 (≈ 0.121 µM) | 50 (≈ 60.6 µM) | 0.2 (≈ 0.242 µM) | > 100 | 0.1 (≈ 0.121 µM) | ≤ 0.005 | 0.03 (≈ 0.0364 µM) | > 100 | 1.56 (≈ 1.89 µM) | 0.1 (≈ 0.121 µM) | 0.01 (≈ 0.0121 µM) | 0.03 (≈ 0.0364 µM) | > 100 | 0.1 (≈ 0.121 µM) | 0.39 (≈ 0.473 µM) | MIC [2]: 0.25 µg/mL (≈ 0.303 µM); MIC (Escherichia coli DC-2): > 100 µg/mL; MIC [20]: 0.1 µg/mL (≈ 0.121 µM); MIC [21]: 0.1 µg/mL (≈ 0.121 µM); MIC [22]: 0.01 µg/mL (≈ 0.0121 µM); MIC [23]: 2 µg/mL (≈ 2.42 µM)
5 | CC[C@H]1OC(=O)[C@H](C)C(=O)[C@H](C)[C@@H](O[C@@H]2O[C@H](C)C[C@H](N(C)C)[C@H]2O)[C@](C)(OC/C=C/c2cncc(-c3cncnc3)c2)C[C@@H](C)C(=O)[C@H](C)[C@H]2NC(=O)O[C@@]21C [Example 45] | > 128 | 0.05 (≈ 0.063 µM) | 0.2 (≈ 0.252 µM) | 0.01 (≈ 0.0126 µM) | 0.1 (≈ 0.126 µM) | 0.1 (≈ 0.126 µM) | > 100 | 1.56 (≈ 1.96 µM) | 50 (≈ 63 µM) | 0.05 (≈ 0.063 µM) | ≤ 0.005 | 0.008 (≈ 0.0101 µM) | > 100 | 25 (≈ 31.5 µM) | 0.39 (≈ 0.491 µM) | ≤ 0.005 | ≤ 0.004 | > 100 | 0.05 (≈ 0.063 µM) | 0.39 (≈ 0.491 µM) | MIC [13]: 0.05 µg/mL (≈ 0.063 µM); MIC (Escherichia coli DC-2): 25 µg/mL (≈ 31.5 µM); MIC [20]: 0.1 µg/mL (≈ 0.126 µM); MIC [21]: 0.05 µg/mL (≈ 0.063 µM); MIC [22]: ≤ 0.005 µg/mL; MIC [23]: 2 µg/mL (≈ 2.52 µM)
